Measured values taken from US20210177889A1, “GASEOUS PHARMACEUTICAL COMPOSITION FOR HYPERTENSION THERAPY” (KEIO UNIVERSITY, priority 2019, published 2021).

Legend:
[1] = tested on: hypertension attributed to 5/6 nephrectomy; test: Prophylactic effect of one hour daily H2 inhalation after 5/6 nephrectomy, invasive arterial blood pressure at 4 weeks; type: in vivo, Lewis rat; settings: four weeks after 5/6 nephrectomy; 1.3% H2 inhaled one hour daily from immediately after nephrectomy; N=3; mean±SE; P=0.02 vs control gas (134.1±3.3)
Method: Invasive blood pressure measurement was performed 4 weeks after gas inhalation. An arterial catheter (PE50, Natsume) was inserted under isoflurane inhalation into the left femoral artery, and arterial blood pressure was measured (DX-360, Nihon Kohden). In order to elicit renal hypertension, 5/6 nephrectomy was carried out with slight modification to previously described methods (Nephrology (Carlton) 19, 552-561; 10.1111/nep.12279 (2014); J. Am. Soc. Nephrol. 4, 2023-2031 (1994); and Kidney Int. 40, 29-34; 10.1038/ki.1991.175 (1991).). Briefly, rats were anesthetized by isoflurane inhalation (induction at 4% and maintenance at 1.5%), and upper midline laparotomy of about 4 cm was carried out. Surgical operation was performed under a microscope, the left renal artery branch was identified, and selectively ligated with 7-0 silk at a position as close as possible to the left kidney so that macroscopic infarction is caused in about ⅔ of the left renal cortex. In the first pilot research (FIGS. 1a and 2), a high-temperature cautery pen (AA11, Bovie, Tenn., U.S.A.) was used to add the resection of the infarcted portion of the kidney. Subsequently, the right renal artery, the renal vein, and the urinary duct was ligated with 4-0 silk, and the right kidney were resected. The abdominal wall and the skin were closed with a 4-0 nylon thread. […]

[2] = tested on: autonomic nervous system activity; test: Spectral analysis of blood pressure variability (autonomic nervous system) in 5/6 nephrectomized rats; type: in vivo, Lewis rat
Method: Heart rate variability was analyzed using telemetry system software (Ponemah Ver. 6.3, Data Science International). Frequency domain analysis (sampling rate of 500 Hz; very low frequency (VLF) (0.05-0.25 Hz); low frequency (LF) (0.25-1.0 Hz); and high frequency (HF) (1.0-3.0 Hz)) was carried out using the arterial pressure waveform data of the first one minute of every five minutes (about 300 to 400 beats). In heart rate variability analysis, data recorded in the first 15 minutes was excluded, and effective data in the first one minute out of a block of every 5 minutes was used. LF and HF each reflected the sympathetic nerve component and the parasympathetic nerve component (Akselrod, S. et al. Power spectrum analysis of heart rate fluctuation: a quantitative probe of beat-to-beat cardiovascular control. Science 213, 220-222 (1981); Pagani, M. et al. Power spectral analysis of heart rate and arterial pressure variabilities as a marker of sympatho-vagal interaction in man and conscious dog. Circ. Res. 59, 178-193 (1986); and Montano, N. et al. Power spectrum analysis of heart rate variability to assess the changes in sympathovagal balance during graded orthostatic tilt. Circulation 90, 1826-1831 (1994)). LF/HF ratio and HF/(LF+HF) were each handled as indicators of sympathetic nerve activity and parasympathetic nerve activity (Heart rate variability: standards of measurement, physiological interpretation and clinical use. Task Force of the European Society of Cardiology and the North American Society of Pacing and Electrophysiology. Circulation 93, 1043-1065 (1996); and Pagani, M. et al. Relationship between spectral components of cardiovascular variabilities and direct measures of muscle sympathetic nerve activity in humans. Circulation 95, 1441-1448 (1997)).
H2 gas (1.3% H2+21% O2+77.7 N2) and control gas (21% O2+79% N2) were filled into gas cylinders in advance at a factory. The H2 group and the control group were allowed to inhale the H2 gas and the control gas that were mixed in advance. […]

[3] = baseline (day 0) to 4 weeks after starting H2 inhalation, vs control 5/6 nephrectomy group

## [2H][2H] [H2 gas, Molecular hydrogen (H2)]
[1]
  mean arterial pressure (MAP): 94.2±10.3 mmHg
[2]; [3]
  decrease in HF power (normalised units), change from baseline: significantly suppressed
  increase in LF power (normalised units), change from baseline: significantly suppressed
[2]; over a 4-week time course, tendency to be suppressed
  increase in LF power and decrease in HF power, compared as continuous variables: not significant
